Consider 1 compound from ChEMBL document CHEMBL4177668, “Synthesis and biological evaluation of thiazole derivatives as GPR119 agonists” (Bioorg Med Chem Lett, 2017).

Active and inactive are the calls of the source. The rule behind the calls is not given here.

The test system of one data set is L929. As to the kind of experiment: Cytotoxicity against mouse L929 cells. It counts as cell-based.
Another data set relates to NIH3T3. As to the kind of experiment: Cytotoxicity against mouse NIH/3T3 cells. It counts as cell-based.
A short description of data set [1]: Metabolic stability in human liver microsomes assessed as compound remaining after 30 mins. Type of data set: ADME, microsome. Particulars: read-out: Stability. For orientation: Liver microsomes are a subcellular fraction often used to study metabolism.
The next data set has as its target T1, Cytochrome P450 2A6 (Homo sapiens, UniProt P11509).
T1 sequence (P11509 whole entry): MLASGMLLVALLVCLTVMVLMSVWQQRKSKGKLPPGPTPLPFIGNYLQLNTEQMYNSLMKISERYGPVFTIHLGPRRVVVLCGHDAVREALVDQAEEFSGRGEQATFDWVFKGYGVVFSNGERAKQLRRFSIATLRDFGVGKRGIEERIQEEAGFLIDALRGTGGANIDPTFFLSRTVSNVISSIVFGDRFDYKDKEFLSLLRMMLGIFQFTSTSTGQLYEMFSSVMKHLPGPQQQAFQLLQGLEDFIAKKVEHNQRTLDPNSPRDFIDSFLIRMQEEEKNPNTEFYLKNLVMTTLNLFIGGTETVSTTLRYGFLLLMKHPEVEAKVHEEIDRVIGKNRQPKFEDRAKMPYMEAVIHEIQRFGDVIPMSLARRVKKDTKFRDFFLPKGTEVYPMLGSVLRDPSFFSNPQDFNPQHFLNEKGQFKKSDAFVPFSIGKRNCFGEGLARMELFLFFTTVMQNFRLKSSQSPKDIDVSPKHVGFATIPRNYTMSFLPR
As to the kind of experiment: Inhibition of CYP2A6 (unknown origin). It counts as ADME.

A further data set has as its system CHO-K1. Description: Cytotoxicity against CHOK1 cells. Particulars: Cricetulus griseus. It counts as cell-based.
The next data set has as its target Cytochrome P450 2D6 (Homo sapiens, UniProt P10635). Description: Inhibition of CYP2D6 (unknown origin). It counts as ADME.
The target of the next data set is Cytochrome P450 3A4 (Homo sapiens, UniProt P08684). Description: Inhibition of CYP3A4 (unknown origin). Type of data set: ADME.
In another data set the target is hERG (KCNH2) (Homo sapiens, UniProt Q12809). As to the kind of experiment: Inhibition of human ERG at 10 uM.
In another data set the target is Cytochrome P450 2C19 (Homo sapiens, UniProt P33261). Description: Inhibition of CYP2C19 (unknown origin). It counts as ADME.
In another data set the test system is Mus musculus. Description: Antidiabetic activity in C57BL/6 mouse assessed as decrease in plasma glucose AUC at 30 mg/kg, po pretreated for 30 mins followed by glucose challenge measured up to 120 mins by oGTT assay. It counts as functional, organism-based.
A further data set has as its target T2, Cytochrome P450 1A2 (Homo sapiens, UniProt P05177).
T2 sequence (P05177 whole entry): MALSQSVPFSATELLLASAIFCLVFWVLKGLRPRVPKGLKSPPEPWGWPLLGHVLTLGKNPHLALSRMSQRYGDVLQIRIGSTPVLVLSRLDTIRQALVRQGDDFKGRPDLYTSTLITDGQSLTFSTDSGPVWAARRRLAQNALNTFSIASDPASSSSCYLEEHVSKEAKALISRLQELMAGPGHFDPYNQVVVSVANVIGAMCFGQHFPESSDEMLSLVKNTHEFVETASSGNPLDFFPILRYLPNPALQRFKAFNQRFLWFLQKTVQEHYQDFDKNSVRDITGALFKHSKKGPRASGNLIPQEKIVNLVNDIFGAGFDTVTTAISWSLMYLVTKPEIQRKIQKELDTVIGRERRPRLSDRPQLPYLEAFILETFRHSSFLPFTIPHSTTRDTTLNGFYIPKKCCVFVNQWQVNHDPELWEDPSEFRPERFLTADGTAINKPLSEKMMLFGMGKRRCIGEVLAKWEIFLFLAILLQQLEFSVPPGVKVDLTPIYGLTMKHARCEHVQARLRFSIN
As to the kind of experiment: Inhibition of CYP1A2 (unknown origin). Type of data set: ADME.

Data set [2] has as its target T3, Glucose-dependent insulinotropic receptor (Homo sapiens) (UniProt Q8TDV5).
T3 sequence (whole entry): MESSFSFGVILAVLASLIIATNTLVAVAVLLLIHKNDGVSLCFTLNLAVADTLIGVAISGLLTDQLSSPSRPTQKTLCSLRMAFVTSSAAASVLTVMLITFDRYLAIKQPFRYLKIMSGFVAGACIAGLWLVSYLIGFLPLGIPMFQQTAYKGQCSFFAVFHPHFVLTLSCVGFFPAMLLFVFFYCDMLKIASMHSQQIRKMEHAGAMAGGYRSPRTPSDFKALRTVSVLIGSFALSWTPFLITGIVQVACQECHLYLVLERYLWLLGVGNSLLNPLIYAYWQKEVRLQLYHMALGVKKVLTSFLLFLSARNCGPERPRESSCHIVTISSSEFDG
Description: Activation of human GPR119 expressed in CHOK1 cells co-expressing CRE-luciferase at 1 uM after 6 hrs by luciferase reporter gene assay relative to GSK1292263. It counts as functional, cell-based. A general note: Reporter assays use an easily measured gene product as a stand-in for the process of interest.

Data set [3] can be described thus: Metabolic stability in rat liver microsomes assessed as compound remaining after 30 mins. Type of data set: ADME, microsome. Particulars: read-out: Stability.
A further data set concerns Vero. As to the kind of experiment: Cytotoxicity against African green monkey Vero cells. Type of data set: cell-based. The note with it: Chlorocebus sabaeus.
For a further data set, the system named is HFL1. Description: Cytotoxicity against HFL1 cells. Type of data set: cell-based. Particulars: Homo sapiens.
In data set [4] the target is T4, Glucose-dependent insulinotropic receptor (Homo sapiens, UniProt Q8TDV5).
T4 sequence (Q8TDV5 whole entry): T3 sequence (whole entry)
Description: Agonist activity at human GPR119 expressed in CHOK1 cells co-expressing CRE-luciferase after 6 hrs by luciferase reporter gene assay. It counts as functional, cell-based.

hERG (KCNH2), sequence (Q12809 whole entry): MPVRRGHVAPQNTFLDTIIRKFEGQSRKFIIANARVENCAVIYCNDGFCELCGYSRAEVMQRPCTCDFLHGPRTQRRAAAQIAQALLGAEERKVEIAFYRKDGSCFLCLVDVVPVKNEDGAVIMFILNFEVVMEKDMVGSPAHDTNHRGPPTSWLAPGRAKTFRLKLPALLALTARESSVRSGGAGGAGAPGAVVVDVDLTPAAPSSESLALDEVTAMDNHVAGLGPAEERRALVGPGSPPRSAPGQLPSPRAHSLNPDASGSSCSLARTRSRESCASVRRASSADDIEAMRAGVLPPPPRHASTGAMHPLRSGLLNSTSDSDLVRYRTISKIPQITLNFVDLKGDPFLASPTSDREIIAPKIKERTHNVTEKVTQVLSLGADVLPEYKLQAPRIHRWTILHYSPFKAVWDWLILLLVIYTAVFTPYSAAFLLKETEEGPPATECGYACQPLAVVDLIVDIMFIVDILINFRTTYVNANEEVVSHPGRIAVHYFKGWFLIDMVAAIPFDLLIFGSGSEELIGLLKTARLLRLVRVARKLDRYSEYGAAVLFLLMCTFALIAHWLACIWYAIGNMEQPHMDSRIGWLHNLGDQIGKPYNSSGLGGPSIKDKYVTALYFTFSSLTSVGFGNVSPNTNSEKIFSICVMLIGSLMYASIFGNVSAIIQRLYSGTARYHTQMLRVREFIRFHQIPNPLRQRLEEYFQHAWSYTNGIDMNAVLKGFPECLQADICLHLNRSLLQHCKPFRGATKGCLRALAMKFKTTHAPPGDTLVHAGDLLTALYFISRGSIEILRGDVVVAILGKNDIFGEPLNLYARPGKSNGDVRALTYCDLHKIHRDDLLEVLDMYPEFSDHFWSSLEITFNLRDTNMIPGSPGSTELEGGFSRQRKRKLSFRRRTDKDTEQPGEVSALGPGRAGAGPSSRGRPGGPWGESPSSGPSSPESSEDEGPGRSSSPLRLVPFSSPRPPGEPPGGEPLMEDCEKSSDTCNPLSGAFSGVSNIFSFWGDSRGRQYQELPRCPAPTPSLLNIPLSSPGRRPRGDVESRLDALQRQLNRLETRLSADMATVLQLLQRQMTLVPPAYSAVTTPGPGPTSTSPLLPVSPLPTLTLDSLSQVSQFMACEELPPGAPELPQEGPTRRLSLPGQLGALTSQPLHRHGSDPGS
Cytochrome P450 2C19, sequence (P33261 whole entry): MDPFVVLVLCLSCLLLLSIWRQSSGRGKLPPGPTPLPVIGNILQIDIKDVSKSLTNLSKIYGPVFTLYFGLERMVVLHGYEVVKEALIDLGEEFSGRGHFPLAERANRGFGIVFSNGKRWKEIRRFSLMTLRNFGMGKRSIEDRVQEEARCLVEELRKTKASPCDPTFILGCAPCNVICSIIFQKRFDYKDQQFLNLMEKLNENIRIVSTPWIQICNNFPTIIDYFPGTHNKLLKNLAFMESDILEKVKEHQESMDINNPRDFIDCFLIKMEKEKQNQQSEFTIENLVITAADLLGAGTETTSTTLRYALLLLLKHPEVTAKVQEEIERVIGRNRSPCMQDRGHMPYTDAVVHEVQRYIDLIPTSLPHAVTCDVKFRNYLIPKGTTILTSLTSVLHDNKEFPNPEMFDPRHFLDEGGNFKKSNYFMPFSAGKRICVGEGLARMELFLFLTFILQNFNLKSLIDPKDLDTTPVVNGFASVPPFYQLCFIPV
Cytochrome P450 3A4, sequence (P08684 whole entry): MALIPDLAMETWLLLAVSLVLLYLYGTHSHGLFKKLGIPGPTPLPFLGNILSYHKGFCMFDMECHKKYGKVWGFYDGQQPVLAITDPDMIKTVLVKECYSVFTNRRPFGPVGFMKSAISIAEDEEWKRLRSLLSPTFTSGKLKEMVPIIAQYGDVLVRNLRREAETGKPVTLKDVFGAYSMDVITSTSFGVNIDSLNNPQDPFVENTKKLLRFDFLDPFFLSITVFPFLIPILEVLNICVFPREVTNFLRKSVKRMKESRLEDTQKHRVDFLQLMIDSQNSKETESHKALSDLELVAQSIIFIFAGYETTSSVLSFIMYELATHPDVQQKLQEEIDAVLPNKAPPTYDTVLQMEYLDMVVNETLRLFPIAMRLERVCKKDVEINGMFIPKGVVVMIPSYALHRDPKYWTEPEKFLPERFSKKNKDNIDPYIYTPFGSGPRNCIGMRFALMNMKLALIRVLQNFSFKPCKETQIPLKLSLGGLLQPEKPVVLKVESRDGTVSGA
Cytochrome P450 2D6, sequence (P10635 whole entry): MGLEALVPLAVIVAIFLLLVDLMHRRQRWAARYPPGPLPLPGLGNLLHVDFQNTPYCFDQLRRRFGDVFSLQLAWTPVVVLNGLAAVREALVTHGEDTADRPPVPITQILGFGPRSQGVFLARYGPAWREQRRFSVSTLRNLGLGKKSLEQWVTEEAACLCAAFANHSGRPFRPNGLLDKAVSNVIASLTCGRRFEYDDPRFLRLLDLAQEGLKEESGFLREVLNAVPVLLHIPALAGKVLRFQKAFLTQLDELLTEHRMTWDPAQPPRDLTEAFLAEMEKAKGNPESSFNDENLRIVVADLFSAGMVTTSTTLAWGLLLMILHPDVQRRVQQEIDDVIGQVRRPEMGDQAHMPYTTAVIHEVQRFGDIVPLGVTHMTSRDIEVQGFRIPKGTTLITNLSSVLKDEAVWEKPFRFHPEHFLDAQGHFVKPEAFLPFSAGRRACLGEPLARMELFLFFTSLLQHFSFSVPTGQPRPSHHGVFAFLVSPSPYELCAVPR

`CCc1cnc(N2CCC(c3nc(COc4ccc(/C=C5\CC(=O)NC5=O)cc4C)cs3)CC2)nc1`: the IC50 with L929, in the data set with NIH3T3, in the data set on CHO-K1, in the data set on Vero and in the data set on HFL1 was more than 100 µM in each case. For the same compound, the remaining at 0.5 h was 17.1% in data set [1] and 32.4% in [3]. In addition, the INH on Cytochrome P450 2A6 is more than 100 µM; at Cytochrome P450 2D6, more than 100 µM; on Cytochrome P450 3A4 it was more than 13.8 µM; at Cytochrome P450 2C19, more than 100 µM; on Cytochrome P450 1A2, more than 100 µM. 10 µM produced 3.3% inhibition against hERG (KCNH2). The outcome in the data set on Mus musculus was Active. This compound displayed an Activity in data set [2] of 90%. Also, the EC50 (commonly the concentration at which the effect is half-maximal) in data set [4] came out at 0.018 µM.
